Source: PubChem BioAssay AID1919016 (Molecular Pharmacology Branch, DTP, NCI, 2023)

System: NCI-H196 complex spheroid growth, percent test/control
Assay: Anticancer human tumor NCI-H196 cell line growth inhibition [AhR];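 further: seven days of drug exposure starting three days after plating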;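 on viability, T/C: 100% = DMSO vehicle control wells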
Settings: for IC50: curve of first compound; for viability, T/C: stronger effect = lower value
Summary of the method: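 Spheroids combined tumor cells with HUVEC endothelial cells and human MSCs as stroma. AhR antagonists were paired with standard or investigational drugs, each dosed in half-log steps down from near clinical Cmax, or from 10 microM where Cmax was unknown.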

CC(C)c1c(-c2ccccc2)nc2c(C#N)c[nH]n2c1=O + Cc1cncc(-c2nc(NCCc3c[nH]c4ccccc34)c3ncn(C(C)C)c3n2)c1
IC50 (second compound 0.1 µM): > 10 µM | IC50 (second compound 0.316 µM): > 10 µM | IC50 (second compound 1 µM): > 10 µM | IC50 (second compound 3.16 µM): > 10 µM | IC50 (second compound 10 µM): > 10 µM | viability, T/C (second compound 0.1 µM, first compound 0.0316 µM): 107% | viability, T/C (second compound 0.1 µM, first compound 0.1 µM): 110% | viability, T/C (second compound 0.1 µM, first compound 0.316 µM): 105% | viability, T/C (second compound 0.1 µM, first compound 1 µM): 100% | viability, T/C (second compound 0.1 µM, first compound 3.16 µM): 117% | viability, T/C (second compound 0.1 µM, first compound 10 µM): 106% | viability, T/C (second compound 0.316 µM, first compound 0.0316 µM): 103% | viability, T/C (second compound 0.316 µM, first compound 0.1 µM): 120% | viability, T/C (second compound 0.316 µM, first compound 0.316 µM): 113% | viability, T/C (second compound 0.316 µM, first compound 1 µM): 109% | viability, T/C (second compound 0.316 µM, first compound 3.16 µM): 113% | viability, T/C (second compound 0.316 µM, first compound 10 µM): 107% | viability, T/C (second compound 1 µM, first compound 0.0316 µM): 120% | viability, T/C (second compound 1 µM, first compound 0.1 µM): 112% | viability, T/C (second compound 1 µM, first compound 0.316 µM): 115% | viability, T/C (second compound 1 µM, first compound 1 µM): 103% | viability, T/C (second compound 1 µM, first compound 3.16 µM): 112% | viability, T/C (second compound 1 µM, first compound 10 µM): 101% | viability, T/C (second compound 3.16 µM, first compound 0.0316 µM): 116% | viability, T/C (second compound 3.16 µM, first compound 0.1 µM): 117% | viability, T/C (second compound 3.16 µM, first compound 0.316 µM): 119% | viability, T/C (second compound 3.16 µM, first compound 1 µM): 102% | viability, T/C (second compound 3.16 µM, first compound 3.16 µM): 115% | viability, T/C (second compound 3.16 µM, first compound 10 µM): 112% | viability, T/C (second compound 10 µM, first compound 0.0316 µM): 75.9% | viability, T/C (second compound 10 µM, first compound 0.1 µM): 86.7% | viability, T/C (second compound 10 µM, first compound 0.316 µM): 89.5% | viability, T/C (second compound 10 µM, first compound 1 µM): 86.9% | viability, T/C (second compound 10 µM, first compound 3.16 µM): 80.7% | viability, T/C (second compound 10 µM, first compound 10 µM): 80.7%
